Experimental data: patent publication US11873303B2, “Substituted pyrazoles as type II IRAK inhibitors” (Merck Patent GmbH, priority 2018, dated 2024)
pIC50: −log10 of the molar value.

Key:
[1] = biological target: T1, IRAK4 (human purified recombinant enzyme His-TEV-IRAK4 (1-460)) (Homo sapiens, UniProt Q9NWZ3); experiment: IRAK4 enzymatic assay (ADP-Glo luminescence); assay type: biochemical; conditions: human recombinant IRAK4, ATP 2 μM, STK1-biotin peptide
T1 construct: His-TEV-IRAK4 (1-460); His (N); TEV cleavage site (N)
T1 sequence (Q9NWZ3 1-460): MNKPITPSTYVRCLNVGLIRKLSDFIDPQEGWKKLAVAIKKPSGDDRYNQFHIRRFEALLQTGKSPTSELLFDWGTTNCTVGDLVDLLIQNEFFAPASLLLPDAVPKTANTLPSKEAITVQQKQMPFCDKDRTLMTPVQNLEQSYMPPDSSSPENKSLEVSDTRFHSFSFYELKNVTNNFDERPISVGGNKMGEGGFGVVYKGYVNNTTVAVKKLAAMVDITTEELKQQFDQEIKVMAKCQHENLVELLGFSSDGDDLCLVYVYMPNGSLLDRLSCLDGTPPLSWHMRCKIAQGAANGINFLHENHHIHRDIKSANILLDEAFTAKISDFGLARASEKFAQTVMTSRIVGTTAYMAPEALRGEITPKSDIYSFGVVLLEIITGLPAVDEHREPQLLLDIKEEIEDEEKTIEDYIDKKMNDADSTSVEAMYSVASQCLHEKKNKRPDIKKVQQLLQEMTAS
Method: IRAK4 is a human purified recombinant enzyme (His-TEV-IRAK4 (1-460)). In this assay, IRAK4 hydrolysed ATP, autophosphorylated and phosphorylated a Serine/Threonine generic peptidic substrate (STK: 61ST1BLC from CisBio International). Measurement of IRAK-4 inhibition was performed in 384-well format based on a luminescence assay (ADP-Glo™ Kinase Assay from Promega). Purified human recombinant IRAK4 (0.3 μg/ml) and serial diluted compounds in DMSO (range of concentration from 10 μM to 0.5 nM) or controls (1% DMSO) were incubated for 15 minutes at RT in assay buffer containing 50 mM Hepes pH 7.0, Fatty acid-free BSA 0.1%, Dithiothreitol (DTT) 2 mM, MgCl2 10 mM, EGTA 0.5 mM, Triton X-100 0.01%, MnCl2 5 mM. The kinase reaction was then initiated by the addition of ATP (2 μM) and the peptidic substrate STK1-biotin peptide (300 nM). After 2 hours of incubation at RT, the reaction was stopped and the unconsumed ATP depleted by the addition of ADP-Glo™ Reagent according to supplier instructions. After 40 minutes of incubation at RT, the Kinase Detection Reagent was then added to the assay plate according to supplier instructions. After 20 minutes of incubation at RT, the luminescence signal was measured with a plate-reading luminometer (PerkinElmer Envision or equivalent reader).

[2] = biological target: T2, IRAK1 (human purified recombinant enzyme His-TEV-IRAK1 (194-712)) (Homo sapiens, UniProt P51617); experiment: IRAK1 enzymatic assay (ADP-Glo luminescence); assay type: biochemical; conditions: human recombinant IRAK1, ATP 1 μM
T2 construct: His-TEV-IRAK1 (194-712); His (N); TEV cleavage site (N)
Method: IRAK1 is a human purified recombinant enzyme (His-TEV-IRAK1 (194-712)). In this assay, IRAK1 hydrolysed ATP and autophosphorylated. Measurement of IRAK-1 inhibition was performed in 384-well format based on luminescence assay (ADP-Glo™ Kinase Assay from Promega). Purified human recombinant IRAK1 (0.3 μg/ml) and serial diluted compounds in DMSO (range of concentration from 10 μM to 0.5 nM) or controls (1% DMSO) were incubated for 15 minutes at RT in assay buffer containing 50 mM Hepes pH 7.0, Fatty acid-free BSA 0.1%, Dithiothreitol (DTT) 2 mM, MgCl2 10 mM, EGTA 0.5 mM, Triton X-100 0.01%. The kinase reaction was then initiated by the addition of ATP at a concentration of 1 μM. After 2 hours of incubation at RT, the reaction was stopped and the unconsumed ATP depleted by the addition of ADP-Glo™ Reagent according to supplier instructions. After 40 minutes of incubation at RT, the Kinase Detection Reagent was then added to the assay plate according to supplier instructions. After 20 minutes of incubation at RT, the luminescence signal was measured with a luminometer (PerkinElmer Envision or equivalent reader).

[3] = system: TLR7 induced IL-6 secretion in human mononuclear cells (PBMC's); experiment: TLR7 induced IL-6 in human PBMC's; assay type: cell-based; conditions: TLR7 ligand 2 uM overnight, IL-6 AlphaLISA
Method: TLR7 Induced IL-6 in Human PBMC's
Human PBMC assay was used as one of the functional assays to monitor the activity of IRAK1 and IRAK4 small molecule inhibitors on TLR7 induced IL-6 secretion in human mononuclear cells (PBMC's). Human PBMCs were prepared from buffy coats (whole blood enriched with leukocytes and platelets) obtained from healthy volunteers used either fresh or frozen were plated in assay media (RPMI+2% P/S/L-glu+10% HI-FBS) and pre-treated with compounds in DMSO/media (range of concentrations from 25 uM to 0.4 nM) or controls (0.25% DMSO) for 30 minutes at 37° C. in assay media. Following pre-treatment with IRAK1 and IRAK4 inhibitors, PBMC's were stimulated with TLR7 specific ligand (2 uM) overnight (16-18 hrs) at 37° C. After incubation supernatant was transferred to 384 well PE AlphaPlate-384 and IL-6 was quantified using Perkin Elmer IL-6 Alpha LISA kit (AL223C). Plates were read on an Envision® plate reader with Alpha Technology®.

T2 sequence (P51617 194-712): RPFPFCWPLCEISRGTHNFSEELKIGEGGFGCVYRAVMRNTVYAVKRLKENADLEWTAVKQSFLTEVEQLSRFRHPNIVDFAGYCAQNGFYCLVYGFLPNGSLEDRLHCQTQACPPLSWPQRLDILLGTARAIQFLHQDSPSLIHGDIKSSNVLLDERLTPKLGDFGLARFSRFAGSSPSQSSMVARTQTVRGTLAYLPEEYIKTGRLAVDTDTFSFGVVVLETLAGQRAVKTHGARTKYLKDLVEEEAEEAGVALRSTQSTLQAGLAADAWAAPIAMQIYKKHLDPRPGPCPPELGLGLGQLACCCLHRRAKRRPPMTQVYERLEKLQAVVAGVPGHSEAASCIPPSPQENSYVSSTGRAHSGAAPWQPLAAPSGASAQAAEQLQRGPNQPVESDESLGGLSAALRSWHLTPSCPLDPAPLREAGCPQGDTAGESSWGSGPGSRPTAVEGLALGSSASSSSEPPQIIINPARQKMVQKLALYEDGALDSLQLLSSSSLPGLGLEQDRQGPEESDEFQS

Row | SMILES | pIC50 [1] | pIC50 [2] | pIC50 [3] | melting point
1 | CC(C)c1ccc(-n2nc(C(C)(C)C)cc2NC(=O)Cc2ccc(-c3nn(C)c4ncnc(N)c34)cc2)cc1 [Example 15, 2-[4-(4-Amino-1-methyl-1H-pyrazolo[3,4-d]pyrimidin-3-yl)-phenyl]-N-[5-tert-butyl-2-(4-isopropyl-phenyl)-2H-pyrazol-3-yl]-acetamide] | 5.30 to 6.00 | > 7.00 | 5.30 to 6.00 | –
2 | CC(C)c1ccc(-n2nc(C(C)(C)C)cc2NC(=O)Cc2ccc(-c3nn(C)c4ncnc(N)c34)cc2F)cc1 [Example 16, 2-[4-(4-Amino-1-methyl-1H-pyrazolo[3,4-d]pyrimidin-3-yl)-2-fluoro-phenyl]-N-[5-tert-butyl-2-(4-isopropyl-phenyl)-2H-pyrazol-3-yl]-acetamide] | 6.00 to 7.00 | > 7.00 | 5.30 to 6.00 | –
3 | Cc1ccc(-n2nc(C(C)(C)CO)cc2NC(=O)Nc2ccc(-c3nn(C)c4ncnc(N)c34)cc2Cl)cc1 [Example 17, 1-(4-{4-amino-1-methyl-1H-pyrazolo[3,4-d]pyrimidin-3-yl}-2-chlorophenyl)-3-[3-(1-hydroxy-2-methylpropan-2-yl)-1-(4-methylphenyl)-1H-pyrazol-5-yl]urea] | 5.30 to 6.00 | > 7.00 | > 7.00 | 192 to 194 °C
4 | Cc1ccc(-n2nc(C3(C)COC3)cc2NC(=O)Nc2ccc(-c3nn(C)c4ncnc(N)c34)cc2Cl)cc1 [Example 18, 1-(4-{4-amino-1-methyl-1H-pyrazolo[3,4-d]pyrimidin-3-yl}-2-chlorophenyl)-3-[3-(3-methyloxetan-3-yl)-1-(4-methylphenyl)-1H-pyrazol-5-yl]urea] | 5.30 to 6.00 | > 7.00 | 6.00 to 7.00 | 170 to 172 °C
5 | Cc1ccc(-n2nc(C(C)(C)C)cc2NC(=O)C(O)c2ccc(-c3nn(C)c4ncnc(N)c34)cc2)cc1 (centres unmarked) [Example 19, 2-[4-(4-Amino-1-methyl-1H-pyrazolo[3,4-d]pyrimidin-3-yl)-phenyl]-N-(5-tert-butyl-2-p-tolyl-2H-pyrazol-3-yl)-2-hydroxy-acetamide] | 6.00 to 7.00 | > 7.00 | 6.00 to 7.00 | –
6 | Cc1ccc(-n2nc(C(C)(C)C)cc2NC(=O)C(=O)c2ccc(-c3nn(C)c4ncnc(N)c34)cc2)cc1 [Example 20, 2-[4-(4-Amino-1-methyl-1H-pyrazolo[3,4-d]pyrimidin-3-yl)-phenyl]-N-(5-tert-butyl-2-p-tolyl-2H-pyrazol-3-yl)-2-oxo-acetamide] | > 7.00 | > 7.00 | 5.30 to 6.00 | –
7 | Cc1ccc(-n2nc(C(C)(C)CO)cc2NC(=O)Nc2ccc(-c3csc4ncnc(N)c34)cc2Cl)cc1 [Example 21, 1-(4-{4-aminothieno[2,3-d]pyrimidin-5-yl}-2-chlorophenyl)-3-[3-(1-hydroxy-2-methylpropan-2-yl)-1-(4-methylphenyl)-1H-pyrazol-5-yl]urea] | < 5.30 | 6.00 to 7.00 | < 5.30 | –
8 | Cc1ccc(-n2nc(C(C)(C)C#N)cc2NC(=O)Nc2ccc(-c3csc4ncnc(N)c34)cc2Cl)cc1 [Example 22, 1-[4-(4-Amino-thieno[2,3-d]pyrimidin-5-yl)-2-chloro-phenyl]-3-[5-(cyano-dimethyl-methyl)-2-p-tolyl-2H-pyrazol-3-yl]-urea] | 5.30 to 6.00 | 6.00 to 7.00 | < 5.30 | –
9 | Cc1ccc(-n2nc(C(C)(C)C)cc2NC(=O)Nc2ccc(-c3csc4ncnc(N)c34)c(F)c2Cl)cc1 [Example 23, 1-[4-(4-Amino-thieno[2,3-d]pyrimidin-5-yl)-2-chloro-3-fluoro-phenyl]-3-(5-tert-butyl-2-p-tolyl-2H-pyrazol-3-yl)-urea] | 5.30 to 6.00 | > 7.00 | > 7.00 | –
10 | Cc1ccc(-n2nc(C(C)(C)C(F)(F)F)cc2NC(=O)Nc2ccc(-c3csc4ncnc(N)c34)cc2Cl)cc1 [Example 24, 1-[4-(4-Amino-thieno[2,3-d]pyrimidin-5-yl)-2-chloro-phenyl]-3-[2-p-tolyl-5-(2,2,2-trifluoro-1,1-dimethyl-ethyl)-2H-pyrazol-3-yl]-urea] | 6.00 to 7.00 | > 7.00 | > 7.00 | –
11 | Cc1ccc(-n2nc(C(C)(C)C)cc2NC(=O)Nc2ccc(-c3nn(C)c4ccnc(N)c34)cc2F)cc1 [Example 26, 1-[4-(4-Amino-1-methyl-1H-pyrazolo[4,3-c]pyridin-3-yl)-2-fluoro-phenyl]-3-(5-tert-butyl-2-p-tolyl-2H-pyrazol-3-yl)-urea] | 6.00 to 7.00 | > 7.00 | > 7.00 | –
12 | Cc1ccc(-n2nc(C(C)(C)C)cc2NC(=O)N[C@H]2CC[C@@H](c3cn(C)c4ncnc(N)c43)CC2)cc1 [Example 27, 3-[3-tert-butyl-1-(4-methylphenyl)-1H-pyrazol-5-yl]-1-[(1s,4s)-4-{4-amino-7-methyl-7H-pyrrolo[2,3-d]pyrimidin-5-yl}cyclohexyl]urea] | 5.30 to 6.00 | 6.00 to 7.00 | – | 228 to 230 °C
